Results published in patent US10201530B2, “Treatment of BRCA1-defective cancer or resistant cancers” (City of Hope, priority 2014, dated 2019).

Key:
Format in all cases: cell-based, human
[1] = system: A2780; test: Cytotoxicity, A2780 cells; conditions: Homo sapiens; A2780, cisplatin-sensitive ovarian cells; read-out: IC50, mean ± SEM
Method: (§1) All cell lines were acquired from the American Type Culture Collection (Manassas, Va., USA). Cells were maintained in RPMI 1640 medium (Mediatech) with 10% fetal bovine serum, 2 mM glutamine, and 100 U of penicillin and 100 μg of streptomycin per ml of medium (Sigma) at 37° C. in 5% CO2. To isolate HCC1437+BRCA1 cells, parental HCC1937 cells were transfected with pcDNA3.1 plasmid expressing full-length BRCA1 cDNA. Stable transfectant clones were selected and used for drug sensitivity assays. For stable transfection, cells at 30-40% confluence were incubated overnight with […] of plasmid DNA, using FUGENE® 6 transfectin reagent (Roche Molecular Biochemical, Monza, Italy) according to the manufacturer's instructions. Cells were then selected in puromycin (1 μg/ml) (Invitrogen life Technologies, La Jolla, Calif., USA.) After 20 to 30 days, viable puromycin-resistant colonies from HCC1937 transfections were expanded and screened. The clones that stably expressed […] and retained growth potential were assayed for BRCA1 expression by Western blot analysis. By Western blot analysis, we evaluated the restoration of BRCA1 expression in the puromycin-resistant cDNA/transfectant cells.
(§2) The MTT cytotoxicity assay was performed by incubating with MTT and monitoring the MTT formazan formed by viable cells with a microplate reader at a wavelength of 560 nm; the survival, ratio was determined using the formula: (Atest−Ablank)/(Acontrol−Ablank)×100%. The cytotoxicity was determined in 96-well plates using the semiautomatic fluorescence-based Digital Imaging Microscopy System (DIMSCAN). DIMSCAN uses digital imaging microscopy to quantify viable cells, which selectively accumulate FDA (fluorescein diacetate; Alfa Aesar, Ward Hill, Mass.). DIMSCAN is capable of measuring cytotoxicity over a 4 log dynamic range by quantifying total fluorescence per well (which is proportional to the number of viable cells) after elimination of the background fluorescence by digital thresholding and eosin Y (Mallinckrodt Baker, Center Valley, Pa.) quenching. Cells were seeded into 96-well plates in 100 μL of complete medium at 2,000 to 5,000 cells per well depending on cell line growth rate. After overnight incubation, test compound was added to each well at various concentrations in 50 μL of culture medium. After incubation with the drugs for 96 hours at 37° C., FDA (final concentration: […]) and eosin Y [final concentration: 0.1% (w/v)] were added to each well and the cells were incubated for an additional 20 minutes at 37° C. Total fluorescence per well was then measured using DIMSCAN, and the results were expressed as the ratio of the fluorescence in treated wells to the fluorescence in untreated wells (survival fraction).

[2] = system: OVCAR-4; test: Cytotoxicity, OVCAR-4 cells; conditions: Homo sapiens, read-out: IC50, mean ± SEM
Method: as §1, §2

[3] = system: γ-H2AX, phospho-p53, phospho-ATM, foxo3, Rad51, BRCA1; test: DDR-associated proteins in A549 cells (Western blot, immunofluorescence)
Method: Immunofluorescence experiments were conducted as described previously (21,22). Specifically, A549 cells were grown on glass coverslips. After treatment with COH29 (1 or 10 μM) for 24 or 48 hours, cells were fixed with 4% paraformaldehyde for 10 min and permeabilizsd with TRITON™ X-100 (0.5%). The coverslips were washed with phosphate-buffered saline (PBS) and blocked with PBS-containing 2% bovine serum albumin (BSA), incubated with an Ab specific to FOXO3 or ATM-pS1981 or γ-H2AX or p53-pS15 (1:50-1:200 dilution), followed by Alexa 488-conjugated anti-rabbit or anti-mouse (1:200). Alexa 594-conjugated anti-goat (1:100) secondary Abs (Molecular Probes). Cells were incubated with 4′,6-diamidino-2-phenylindole (DAP1; Sigma) to stain the nuclei. Specific staining was visualized and images were captured with a Leica SF2 AOBS confocal laser scanning microscope. To measure foci-positive cells, we used ˜300 cells randomly captured by confocal microscopy. The percentages of considering foci-positive cells were calculated from cells containing at least five foci. Each error bar presented is the mean of standard deviation.
(§3) For subcellular fractionation, cells were trypsinized and washed with cold PBS solution twice. After centrifugation at 1,200 g for 5 min, cells were incubated in buffer (50 mM HEPES, pH 7.5, 150 mM NaCl, 1 mM EDTA) containing 0.2% NONIDET™ P-40 (NP-40), supplemented with protease inhibitors (5 μg/ml each of pepstatin, leupeptin, and aprotinin) and phosphatase inhibitors on ice for 5 min. Following centrifugation at 1,000 g for 5 min, the supernatant was collected (i.e., cytoplasmic fraction) and pellets were washed with the same buffer twice. The washed samples were extracted for 40 min on ice with fractionation buffer containing 0.5% NP-40 for nuclear fraction. All the samples were sonicated and clarified by centrifugation at 16,000 g for 15 min. Protein concentrations of all fractions were determined with Bio-Rad Protein Assay (Bio-Rad Laboratories, Hercules, Calif.). Immunoblotting was performed as described previously (21,22). Briefly, equal amounts of boiled protein samples were subjected to SDS-polyacrylamide gel electrophoresis (PAGE) and transferred onto nitrocellulose membranes (Bio-Rad Laboratories). Membranes were blocked for 1 hour in 3% BSA in Tris buffered saline containing 0.05% Tween 20 (TBST) and incubated for 1 hour with primary antibody (1:500 or 1:1000) diluted in TBST containing 1% BSA. After two washes with TBST, membranes were incubated for 1 hour with horseradish peroxidase-conjugated secondary Abs (1:3000 dilution) at room temperature. The immunoblots were visualized on film with the West-Q chemi-luminescence kit (GenDEPOT, Barker, Tex.).

[4] = system: PARP1 protein; test: PARP1 protein level by Western blot
Method: as §3, with “After centrifugation at 1,200 g for 5 min, cells were incubated in buffer (50 mM HEPES, pH 7.5, 150 mM NaCl, 1 mM EDTA) containing 0.2% NONIDET™ P-40 (NP-40), supplemented with protease inhibitors (5 μg/ml each of pepstatin, leupeptin, and aprotinin) and phosphatase inhibitors on ice for 5 min.” left out

**Q.** How did the IC50 [1] turn out when `O=C(Nc1nc(-c2ccc(O)c(O)c2)c(-c2ccccc2)s1)c1ccc(O)c(O)c1` [COH29] was run?
**A.** 4.67 ± 1.64 µM

**Q.** What about the IC50 [2] of the same molecule?
**A.** 11.2 ± 1.51 µM

**Q.** And the “nuclear γ-H2AX, phospho-p53, phospho-ATM” value ([3]; A549 BRCA1 wild-type NSCLC cells, 48 h)?
**A.** induced accumulation of γ-H2AX, phospho-p53, and phospho-ATM in the nucleus

**Q.** What about the “nuclear foxo3 and p27” value ([3]; A549 cells) of the same molecule?
**A.** induction of foxo3 and its target protein p27 in the nucleus

**Q.** What about the “BRCA1 protein level and Rad51 foci formation” value ([3]; A549 cells, 24 h) of the same molecule?
**A.** suppressed the protein level of BRCA1 and Rad51 foci formation

**Q.** And the “Rad51 expression, Western analysis” value ([3]; nucleus of A549 cells)?
**A.** downregulated in the nucleus

**Q.** What about the “effect on PARP1 protein level” value ([4]; HCC1937 BRCA1-defective cells, 24 h) of the same molecule?
**A.** attenuated PARP1 protein

**Q.** And the “effect on PARP1 protein level” value ([4]; HCC1937 cells irrespective of BRCA1 status, 4 h treatment)?
**A.** Little reduction
